Consider three compounds from article PMC3583342 (Clinical pharmacology and therapeutics, 2008).

What is called AUC(0-t) is the area under the concentration-time curve up to a stated or last time point. For orientation: AUC(0-inf) means the area under the concentration-time curve extrapolated to infinity. A low value points to low exposure. Broadly, the Cmax is the maximum level reached in the sampled fluid or tissue. What is called Tmax is the time at which the peak concentration occurs.

Several values for one entry are separate records, joined by “and”; a condition that tells them apart may be missing. Equal entries are not always repeated. Where two headings read alike, the source gives them in different places.

One series is described as follows: Oral. The following applies: human, in vivo, 11.2 mg; for AUC(0-t): AUC0-96, oral d5-methadone HCl 11.2 mg; for AUC(0-t) / AUC(0-inf) / Cmax: mean ± SD, n=12; for AUC(0-inf): AUC0-∞; for AUC(0-inf) / Cmax / Tmax: oral d5-methadone HCl 11.2 mg; for Tmax: median (range).
The nature of the next series: Intravenous. The following applies: human, in vivo, 6 mg, mean ± SD, n=12; for AUC(0-t): AUC0-96, IV methadone HCl 6.0 mg; for AUC(0-inf): AUC0-∞.
For series [1] the following is noted: cited from earlier work.
Series [2] concerns dark-adapted pupil diameter (miosis). As to the kind of experiment: Methadone pharmacodynamics: dark-adapted pupil diameter change. It is filed as in vivo, human. The following applies: for Maximum miosis / AUEC0-∞: mean ± SD, n=11; for AUEC0-∞: miosis.
For series [3] the following is noted: human, in vivo, po.
Another series has as its system P-gp. The following applies: oral fexofenadine P-gp probe, cited from earlier work.
[4] abbreviates: 6.0 mg IV plus 11.2 mg oral methadone HCl.
[5] abbreviates: 6.0 mg IV plus 11.2 mg oral methadone HCl, acute ritonavir.
Setting [6] is: 6.0 mg IV plus 11.2 mg oral methadone HCl, control.
[7] abbreviates: 6.0 mg IV plus 11.2 mg oral methadone HCl, steady-state ritonavir.

Consider `CCC(=O)C(C[C@H](C)N(C)C)(c1ccccc1)c1ccccc1` [S-methadone], for which the AUC(0-t) in “Oral” (acute ritonavir) was determined as 336 ± 170 ng·h/mL; in the series “Oral” (control), 580 ± 253 ng·h/mL; in “Oral” (steady-state ritonavir), 308 ± 161 ng·h/mL; in “Intravenous” (acute ritonavir), 215 ± 93 ng·h/mL; in the series “Intravenous” (control) it was 379 ± 164 ng·h/mL; in “Intravenous” (steady-state ritonavir), 187 ± 107 ng·h/mL. For the same compound, the AUC(0-inf) in “Oral” (acute ritonavir) is 388 ± 233 ng·h/mL; in the series “Oral” (control), 672 ± 335 ng·h/mL; in “Oral” (steady-state ritonavir), 340 ± 205 ng·h/mL; in “Intravenous” (IV methadone HCl 6.0 mg, acute ritonavir) it was 241 ± 120 ng·h/mL; in “Intravenous” (IV methadone HCl 6.0 mg, steady-state ritonavir), 211 ± 129 ng·h/mL. Moreover, the Cmax in the series “Oral” (acute ritonavir) worked out at 13 ± 6 ng/mL; in “Oral” (control) it was 21 ± 8 ng/mL; in “Intravenous” (Cmax, IV methadone HCl 6.0 mg, steady-state ritonavir), 57 ± 29 ng/mL. Besides, the Tmax was 4 h in the series “Oral” (acute ritonavir), 2 h in “Oral” (control) and 4 h in “Oral” (steady-state ritonavir).
In the case of `CCC(=O)C(CC(C)N(C)C)(c1ccccc1)c1ccccc1` (stereo not shown) [methadone], the “effect on plasma racemic methadone Cmax and AUC0-24” value in series [1] (100mg ritonavir alone for 7d) was “no effect”. The “decreases in methadone plasma concentrations after ritonavir initiation” value in series [1] (patients on stable methadone doses, no withdrawal symptoms) is given as 30-50%. Further, in series [2] (setting [4]), the “time at which miosis was first detectable (first time point)” value amounted to 2 min and the “time of peak miosis effects” value fell in the range of 5 to 10 min. In series [2] (setting [5]), the Maximum miosis was 5.1 ± 1.0 mm and the “AUEC0-∞” value is 135 ± 61 mm•hr. Besides, in series [2] (setting [6]), the Maximum miosis came to 4.3 ± 1.2 mm and the “AUEC0-∞” value was 117 ± 61 mm•hr. For the same compound, in series [2] (setting [7]), the Maximum miosis was determined as 4.2 ± 0.6 mm and the “AUEC0-∞” value is recorded as 91 ± 46 mm•hr. In series [2] (in vivo), the Emax was 3.0 ± 0.2 mm and 4.2 ± 0.2 ^b mm and 3.3 ± 0.1 ^c mm. For the same compound, the “time of second plasma concentration peak” value in series [3] lay within 3 to 4 h.
`CC(C)c1nc(CN(C)C(=O)N[C@H](C(=O)N[C@@H](Cc2ccccc2)C[C@H](O)[C@H](Cc2ccccc2)NC(=O)OCc2cncs2)C(C)C)cs1` [ritonavir]: the entries for the “increase in fexofenadine plasma AUC” value with P-gp (acute ritonavir) and in the series with P-gp (steady-state ritonavir) were 2.8 fold and 1.4 fold, respectively.
